Measured values from patent US20090253669A1, “Substituted Sulfonamide Compounds” (GRUENENTHAL GmbH, priority 2008, published 2009).

Legend:
[1] = target: T1, human B1R receptor (hB1R) (Homo sapiens, UniProt P46663); assay: FLIPR Ca2+ assay on hB1R-transfected CHO K1 cells, antagonistic action; format: cell-based; details: CHO-K1, 10 μM test substance; agonist Lys-Des-Arg9-bradykinin 0.5 nM; % of maximum achievable inhibition; read-out: hB1R [10 μM] % inhibition
T1 construct: host or cells: CHO K1 cells
T1 sequence (P46663 1-353): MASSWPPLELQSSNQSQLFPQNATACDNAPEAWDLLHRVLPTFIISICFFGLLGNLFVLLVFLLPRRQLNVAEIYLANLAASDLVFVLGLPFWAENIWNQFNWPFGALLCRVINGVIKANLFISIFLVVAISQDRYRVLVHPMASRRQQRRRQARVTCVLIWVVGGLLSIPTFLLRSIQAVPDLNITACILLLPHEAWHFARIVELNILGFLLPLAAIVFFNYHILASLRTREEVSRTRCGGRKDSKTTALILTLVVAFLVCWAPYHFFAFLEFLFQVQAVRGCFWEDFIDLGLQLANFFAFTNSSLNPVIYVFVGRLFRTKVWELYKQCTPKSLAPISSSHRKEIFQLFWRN

[2] = target: T2, B1R receptor of the rat (rB1R) (Rattus norvegicus, UniProt P97583); assay: FLIPR Ca2+ assay on rB1R-transfected CHO K1 cells, antagonistic action; format: cell-based; details: CHO-K1, 10 μM test substance; agonist Des-Arg9-bradykinin 100 nM; % of maximum achievable inhibition; read-out: rB1R [10 μM] % inhibition
T2 construct: host or cells: CHO K1 cells
T2 sequence (P97583 1-337): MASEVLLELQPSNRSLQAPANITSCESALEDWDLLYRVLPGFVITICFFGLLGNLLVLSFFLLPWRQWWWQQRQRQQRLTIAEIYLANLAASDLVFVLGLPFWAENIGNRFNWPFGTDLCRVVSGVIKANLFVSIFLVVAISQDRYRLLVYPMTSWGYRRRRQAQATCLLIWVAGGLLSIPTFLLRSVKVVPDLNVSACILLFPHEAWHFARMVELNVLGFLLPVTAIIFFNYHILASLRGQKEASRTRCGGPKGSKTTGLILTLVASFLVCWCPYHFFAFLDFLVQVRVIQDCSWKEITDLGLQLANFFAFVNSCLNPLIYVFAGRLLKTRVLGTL

`CN(C)C1(CCc2ccccc2)CCC(NC(=O)CC2c3ccccc3CCN2S(=O)(=O)c2ccc(Cl)c(Cl)c2)CC1` (stereo not drawn) [Compound 1, 2-(2-(3,4-dichlorophenylsulfonyl)-1,2,3,4-tetrahydroisoquinolin-1-yl)-N-(4-(dimethylamino)-4-phenethylcyclohexyl)acetamide] was tested. Which inhibition at 10 µM [1] did it give?
The inhibition at 10 µM was 96%.

What about the inhibition at 10 µM [2] of the same compound?
The inhibition at 10 µM was 105%.

With `COc1cc(C)c(S(=O)(=O)N2CCC(OCC(=O)NC3CCC(CCc4ccccc4)(N(C)C)CC3)C2)c(C)c1` (stereo not drawn) [Compound 5, N-(4-(dimethylamino)-4-phenethylcyclohexyl)-2-(1-(4-methoxy-2,6-dimethylphenylsulfonyl)pyrrolidin-3-yloxy)acetamide] as the compound, how does the inhibition at 10 µM [1] read?
Its inhibition at 10 µM is 104%.

What about the inhibition at 10 µM [2] of the same compound?
The inhibition at 10 µM was 100%.

Which inhibition at 10 µM [1] does the source give for `COc1cc(C)c(S(=O)(=O)N(C)CCOCC(=O)NC2CCC(c3cccc(F)c3)(N(C)C)CC2)c(C)c1` (stereo not drawn) [Compound 6, N-(4-(dimethylamino)-4-(3-fluorophenyl)cyclohexyl)-2-(2-(4-methoxy-N,2,6-trimethylphenylsulfonamido)ethoxy)acetamide] here?
Its inhibition at 10 µM is 100%.

What about the inhibition at 10 µM [2] of the same compound?
The inhibition at 10 µM was 100%.

Which results are given for `COc1cc(C)c(S(=O)(=O)N(C)CCOCC(=O)NC2CCC(CCc3ccccc3)(N(C)C)CC2)c(C)c1` (stereo not drawn) [Compound 7, N-(4-(dimethylamino)-4-phenethylcyclohexyl)-2-(2-(4-methoxy-N,2,6-trimethylphenylsulfonamido)ethoxy)acetamide]?
inhibition at 10 µM [1]: 103%; inhibition at 10 µM [2]: 100%

For `COc1cc(C)c(S(=O)(=O)N(C)CCOCC(=O)NC2CCC(Cc3ccc(F)cc3)(N(C)C)CC2)c(C)c1` (stereo not drawn) [Compound 9, N-(4-(dimethylamino)-4-(4-fluorobenzyl)cyclohexyl)-2-(2-(4-methoxy-N,2,6-trimethylphenylsulfonamido)ethoxy)acetamide], which inhibition at 10 µM [1] is on record?
Its inhibition at 10 µM is 104%.

What about the inhibition at 10 µM [2] of the same compound?
Its inhibition at 10 µM is 95%.

`COc1cc(C)c(S(=O)(=O)N(C)CCOCC(=O)NC2CCC(Cc3ccccc3C)(N(C)C)CC2)c(C)c1` (stereo not drawn) [Compound 10, N-(4-(dimethylamino)-4-(2-methylbenzyl)cyclohexyl)-2-(2-(4-methoxy-N,2,6-trimethylphenylsulfonamido)ethoxy)acetamide] was tested. Which inhibition at 10 µM [1] did it give?
The inhibition at 10 µM was 103%.

What about the inhibition at 10 µM [2] of the same compound?
The inhibition at 10 µM was 95%.

With `COc1cc(C)c(S(=O)(=O)N(C)CCOCC(=O)NC2CCC(c3ccccc3)(N3CCCCC3)CC2)c(C)c1` (stereo not drawn) [Compound 11, 2-(2-(4-methoxy-N,2,6-trimethylphenylsulfonamido)ethoxy)-N-(4-phenyl-4-(piperidin-1-yl)cyclohexyl)acetamide] as the compound, how does the inhibition at 10 µM [1] read?
Its inhibition at 10 µM is 100%.

And the inhibition at 10 µM [2]?
Its inhibition at 10 µM is 90%.

For `Cc1ccccc1CC1(N(C)C)CCC(NC(=O)CC2c3ccccc3CCN2S(=O)(=O)c2ccc(Cl)c(Cl)c2)CC1` (stereo not drawn) [Compound 12, 2-(2-(3,4-dichlorophenylsulfonyl)-1,2,3,4-tetrahydroisoquinolin-1-yl)-N-(4-(dimethylamino)-4-(2-methylbenzyl)cyclohexyl)acetamide], which inhibition at 10 µM [1] is on record?
The inhibition at 10 µM was 77%.

What about the inhibition at 10 µM [2] of the same compound?
The inhibition at 10 µM was 88%.

With `COc1cc(C)c(S(=O)(=O)N2CCC(OCC(=O)NC3CCC(Cc4ccccc4C)(N(C)C)CC3)C2)c(C)c1` (stereo not drawn) [Compound 14, N-(4-(dimethylamino)-4-(2-methylbenzyl)cyclohexyl)-2-(1-(4-methoxy-2,6-dimethylphenylsulfonyl)pyrrolidin-3-yloxy)acetamide] as the compound, how does the inhibition at 10 µM [1] read?
The inhibition at 10 µM was 89%.

What about the inhibition at 10 µM [2] of the same compound?
Its inhibition at 10 µM is 82%.

Which inhibition at 10 µM [1] does the source give for `O=C(CC1c2ccccc2CCN1S(=O)(=O)c1ccc(Cl)c(Cl)c1)NC1CCC(Cc2ccccc2)(N2CCCCC2)CC1` (stereo not drawn) [Compound 15, N-(4-benzyl-4-(piperidin-1-yl)cyclohexyl)-2-(2-(3,4-dichlorophenylsulfonyl)-1,2,3,4-tetrahydroisoquinolin-1-yl)acetamide] here?
Its inhibition at 10 µM is 55%.

And the inhibition at 10 µM [2]?
The inhibition at 10 µM was 82%.

How did the inhibition at 10 µM [1] turn out when `O=C(CC1c2ccccc2CCN1S(=O)(=O)c1ccc(Cl)c(Cl)c1)NC1CCC(Cc2ccccc2)(N2CCCCCC2)CC1` (stereo not drawn) [Compound 16, N-(4-(azepan-1-yl)-4-benzylcyclohexyl)-2-(2-(3,4-dichlorophenylsulfonyl)-1,2,3,4-tetrahydroisoquinolin-1-yl)acetamide] was run?
The inhibition at 10 µM was 91%.

And the inhibition at 10 µM [2]?
Its inhibition at 10 µM is 80%.

Which inhibition at 10 µM [1] does the source give for `COc1cc(C)c(S(=O)(=O)N(C)CCOCC(=O)NC2CCC(Cc3ccccc3)(N3CCCCC3)CC2)c(C)c1` (stereo not drawn) [Compound 17, N-(4-benzyl-4-(piperidin-1-yl)cyclohexyl)-2-(2-(4-methoxy-N,2,6-trimethylphenylsulfonamido)ethoxy)acetamide] here?
Its inhibition at 10 µM is 86%.

What about the inhibition at 10 µM [2] of the same compound?
Its inhibition at 10 µM is 75%.

`COc1cc(C)c(S(=O)(=O)N2CCC(OCC(=O)NC3CCC(Cc4ccccc4)(N4CCCCC4)CC3)C2)c(C)c1` (stereo not drawn) [Compound 18, N-(4-benzyl-4-(piperidin-1-yl)cyclohexyl)-2-(1-(4-methoxy-2,6-dimethylphenylsulfonyl)pyrrolidin-3-yloxy)acetamide] was tested. Which inhibition at 10 µM [1] did it give?
Its inhibition at 10 µM is 68%.

And the inhibition at 10 µM [2]?
Its inhibition at 10 µM is 74%.

With `COc1ccc(S(=O)(=O)N2CCCCC2CCOCC(=O)NC2CCC(c3ccccc3)(N(C)C)CC2)cc1` (stereo not drawn) [Compound 19, N-(4-(dimethylamino)-4-phenylcyclohexyl)-2-(2-(1-(4-methoxyphenylsulfonyl)piperidin-2-yl)ethoxy)acetamide] as the compound, how does the inhibition at 10 µM [1] read?
Its inhibition at 10 µM is 51%.

What about the inhibition at 10 µM [2] of the same compound?
Its inhibition at 10 µM is 73%.

What does the source list for `COc1cc(C)c(S(=O)(=O)N(C)CCOCC(=O)NC2CCC(Cc3ccccc3)(N3CCCCCC3)CC2)c(C)c1` (stereo not drawn) [Compound 20, N-(4-(azepan-1-yl)-4-benzylcyclohexyl)-2-(2-(4-methoxy-N,2,6-trimethylphenylsulfonamido)ethoxy)acetamide]?
inhibition at 10 µM [1]: 91%; inhibition at 10 µM [2]: 69%

Which results are given for `CN(C)C1(c2cccc(F)c2)CCC(NC(=O)COCCN(C)S(=O)(=O)c2ccc(Cl)cc2Cl)CC1` (stereo not drawn) [Compound 21, 2-(2-(2,4-dichloro-N-methylphenylsulfonamido)ethoxy)-N-(4-(dimethylamino)-4-(3-fluorophenyl)cyclohexyl)acetamide]?
inhibition at 10 µM [1]: 29%; inhibition at 10 µM [2]: 67%

For `COc1cc(C)c(S(=O)(=O)N(CCOCC(=O)N2CCC(c3cccc(F)c3)(N3CCN(C)CC3)CC2)Cc2ccccc2)c(C)c1` [Compound 218, N-Benzyl-N-(2-(2-(4-(3-fluorophenyl)-4-(4-methylpiperazin-1-yl)piperidin-1-yl)-2-oxoethoxy)ethyl)-4-methoxy-2,6-dimethylbenzenesulfonamide], which inhibition at 10 µM [2] is on record?
Its inhibition at 10 µM is 101%.

How did the inhibition at 10 µM [2] turn out when `COc1cc(C)c(S(=O)(=O)N(CCOCC(=O)N2CCC(c3cccc(F)c3)(N3CCN(C)CC3)CC2)c2ccccc2)c(C)c1` [Compound 219, N-(2-(2-(4-(3-Fluorophenyl)-4-(4-methylpiperazin-1-yl)piperidin-1-yl)-2-oxoethoxy)ethyl)-4-methoxy-2,6-dimethyl-N-phenylbenzenesulfonamide] was run?
Its inhibition at 10 µM is 61%.

How did the inhibition at 10 µM [2] turn out when `COc1cc(C)c(S(=O)(=O)N2c3ccccc3CCC2COCC(=O)N2CCC(c3cccc(F)c3)(N3CCN(C)CC3)CC2)c(C)c1` (stereo not drawn) [Compound 220, 1-(4-(3-Fluorophenyl)-4-(4-methylpiperazin-1-yl)piperidin-1-yl)-2-((1-(4-methoxy-2,6-dimethylphenylsulfonyl)-1,2,3,4-tetrahydroquinolin-2-yl)methoxy)ethanone] was run?
The inhibition at 10 µM was 97%.

`COc1cc(C)c(S(=O)(=O)N(C)CCOCC(=O)N2CCC(c3cccc(F)c3)(N3CCN(C)CC3)CC2)c(C)c1C` [Compound 224, N-(2-(2-(4-(3-Fluorophenyl)-4-(4-methylpiperazin-1-yl)piperidin-1-yl)-2-oxoethoxy)ethyl)-4-methoxy-N,2,3,6-tetramethylbenzenesulfonamide] was tested. Which inhibition at 10 µM [2] did it give?
The inhibition at 10 µM was 100%.
